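Exposure lasted 48 hours, with cells grown in 96-well plates and compounds tested at five concentrations. The concentration for full growth arrest is given as TGI.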
What was measured:
Test in all cases: inhibition of tumour cell growth, NCI panel, 48 h
SNB-78 CNS = tested on: SNB-78 CNS
MOLT-4 leukemia = tested on: MOLT-4 leukemia
UO-31 renal = tested on: UO-31 renal
CAKI-1 renal = tested on: CAKI-1 renal
HOP-18 NSCLC = tested on: HOP-18 NSCLC
SF-295 CNS = tested on: SF-295 CNS
NCI-H226 lung = tested on: NCI-H226 lung
SK-MEL-5 melanoma = tested on: SK-MEL-5 melanoma
HCT-15 colon = tested on: HCT-15 colon
A498 renal = tested on: A498 renal
KM12 colon = tested on: KM12 colon
RXF 393 renal = tested on: RXF 393 renal
DMS 114 small cell lung = tested on: DMS 114 small cell lung
LOX IMVI melanoma = tested on: LOX IMVI melanoma
K-562 leukemia = tested on: K-562 leukemia
HCT-116 colon = tested on: HCT-116 colon
NCI-H23 lung = tested on: NCI-H23 lung
OVCAR-4 ovarian = tested on: OVCAR-4 ovarian
SW-620 colon = tested on: SW-620 colon
COLO 205 colon = tested on: COLO 205 colon
EKVX NSCLC = tested on: EKVX NSCLC
SNB-75 CNS = tested on: SNB-75 CNS
DLD-1 colon = tested on: DLD-1 colon
HCC-2998 colon = tested on: HCC-2998 colon
HL-60(TB) leukemia = tested on: HL-60(TB) leukemia
TK-10 renal = tested on: TK-10 renal
OVCAR-3 ovarian = tested on: OVCAR-3 ovarian
786-0 renal = tested on: 786-0 renal
U251 CNS = tested on: U251 CNS
M19-MEL melanoma = tested on: M19-MEL melanoma
XF 498 CNS = tested on: XF 498 CNS
IGROV1 ovarian = tested on: IGROV1 ovarian
UACC-62 melanoma = tested on: UACC-62 melanoma
RPMI-8226 leukemia = tested on: RPMI-8226 leukemia
NCI-H460 lung = tested on: NCI-H460 lung
UACC-257 melanoma = tested on: UACC-257 melanoma
ACHN renal = tested on: ACHN renal
MALME-3M melanoma = tested on: MALME-3M melanoma
A549 NSCLC = tested on: A549 NSCLC
OVCAR-5 ovarian = tested on: OVCAR-5 ovarian
OVCAR-8 ovarian = tested on: OVCAR-8 ovarian
KM20L2 colon = tested on: KM20L2 colon
HOP-92 NSCLC = tested on: HOP-92 NSCLC
SNB-19 CNS = tested on: SNB-19 CNS
SF-539 CNS = tested on: SF-539 CNS
SN12C renal = tested on: SN12C renal
LXFL 529 NSCLC = tested on: LXFL 529 NSCLC
SK-MEL-2 melanoma = tested on: SK-MEL-2 melanoma
HT29 colon = tested on: HT29 colon
SK-OV-3 ovarian = tested on: SK-OV-3 ovarian
CCRF-CEM leukemia = tested on: CCRF-CEM leukemia
HOP-62 NSCLC = tested on: HOP-62 NSCLC
M14 melanoma = tested on: M14 melanoma

COc1nc(NC2OC(COC(C)=O)C(OC(C)=O)C(OC(C)=O)C2OC(C)=O)c2c(OC(C)=O)c(C)c(=O)oc2n1 (stereo not drawn)
TGI (SNB-78 CNS): > 100 µM | TGI (MOLT-4 leukemia): > 100 µM | TGI (UO-31 renal): > 100 µM | TGI (CAKI-1 renal): > 100 µM | TGI (HOP-18 NSCLC): > 100 µM | TGI (SF-295 CNS): > 100 µM | TGI (NCI-H226 lung): > 100 µM | TGI (SK-MEL-5 melanoma): > 100 µM | TGI (HCT-15 colon): > 100 µM | TGI (A498 renal): 3.18 µM | TGI (KM12 colon): > 100 µM | TGI (RXF 393 renal): > 100 µM | TGI (DMS 114 small cell lung): > 100 µM | TGI (LOX IMVI melanoma): > 100 µM | TGI (K-562 leukemia): > 100 µM | TGI (HCT-116 colon): > 100 µM | TGI (NCI-H23 lung): > 100 µM | TGI (OVCAR-4 ovarian): > 100 µM | TGI (SW-620 colon): > 100 µM | TGI (COLO 205 colon): > 100 µM | TGI (EKVX NSCLC): > 100 µM | TGI (SNB-75 CNS): > 100 µM | TGI (DLD-1 colon): > 100 µM | TGI (HCC-2998 colon): > 100 µM | TGI (HL-60(TB) leukemia): > 100 µM | TGI (TK-10 renal): > 100 µM | TGI (OVCAR-3 ovarian): > 100 µM | TGI (786-0 renal): > 100 µM | TGI (U251 CNS): > 100 µM | TGI (M19-MEL melanoma): > 100 µM | TGI (XF 498 CNS): > 100 µM | TGI (IGROV1 ovarian): > 100 µM | TGI (UACC-62 melanoma): > 100 µM | TGI (RPMI-8226 leukemia): > 100 µM | TGI (NCI-H460 lung): 3.15 µM | TGI (UACC-257 melanoma): > 100 µM | TGI (ACHN renal): 3.16 µM | TGI (MALME-3M melanoma): > 100 µM | TGI (A549 NSCLC): > 100 µM | TGI (OVCAR-5 ovarian): > 100 µM | TGI (OVCAR-8 ovarian): > 100 µM | TGI (KM20L2 colon): > 100 µM | TGI (HOP-92 NSCLC): > 100 µM | TGI (SNB-19 CNS): > 100 µM | TGI (SF-539 CNS): > 100 µM | TGI (SN12C renal): > 100 µM | TGI (LXFL 529 NSCLC): > 100 µM | TGI (SK-MEL-2 melanoma): > 100 µM | TGI (HT29 colon): > 100 µM | TGI (SK-OV-3 ovarian): > 100 µM | TGI (CCRF-CEM leukemia): > 100 µM | TGI (HOP-62 NSCLC): > 100 µM | TGI (M14 melanoma): > 100 µM

Source: PubChem BioAssay (NCI)
